PMC7712530 (Nucleosides, nucleotides & nucleic acids, 2015)

Assays:
MT-4 cells = test: Cytotoxicity assay; type: cell-based; settings: for cytotoxicity (in words): text: toward HepG2 cells, table head and method say MT-4
HBV [1] = test: Anti-HBV assay in HepG2 2.2.15 cells; type: cell-based; settings: for EC50: Hepatitis B virus, HepG2 2.2.15, 144 h, read-out: EC50 anti-HBV activity
HBV [2] = settings: relative to entecavir 1; ref 3a; cited from earlier work

Compound	cytotoxicity (in words) (MT-4 cells)	EC50 (HBV [1]) [nM]	also measured
9-[Bis-O-(pivaloyoxymethyl)phosphorylmethoxy]allyl]guanine [Compound 8]	cytotoxicity toward HepG2 cells was also observed		
C=C(CCO)Cn1cnc2c(=O)[nH]c(N)nc21 [Compound 6, 2-Amino-9-(4-hydroxy-2-methylenebutyl)-1H-purin-6(9H)-one]	nor display any cytotoxicity	> 1000	anti-HBV activity (in words) (HBV [1]; HepG2 2.2.15 cells): neither exhibit anti-HBV activity
C=C1[C@H](CO)[C@@H](O)C[C@@H]1n1cnc2c(=O)[nH]c(N)nc21 [Entecavir, entecavir, reference compound]		0.77	
Nc1nc2c(ncn2[C@H]2C[C@@H](CO)[C@H](O)C2)c(=O)[nH]1 [carbocyclic dG]			potency, times less than that of entecavir (1) (HBV [2]): 10 times
CC(C)(C)C(=O)O [pivalic acid, reference compound]			concentration up to which no cytotoxicity was shown (MT-4 cells; in this assay system): > 100 µM
